Laboratory results taken from patent US10246411B2, “(Z)-3,4,5-trimethoxystyrylbenzenesulfonamides as potential anticancer agents” (COUNCIL OF SCIENTIFIC & INDUSTRIAL RESEARCH, priority 2014, dated 2019).
Where two headings read alike, the source gives them in different places.

How the values were obtained:
MALME-3M = assay: In vitro cytotoxicity (NCI protocol, SRB), MALME-3M; conditions: Homo sapiens, 48 h
TK-10 = assay: In vitro cytotoxicity (NCI protocol, SRB), TK-10; conditions: Homo sapiens, TK-10, 48 h
SF-295 = assay: In vitro cytotoxicity (NCI protocol, SRB), SF-295; conditions: Homo sapiens, SF-295, 48 h
IGROV1 = assay: In vitro cytotoxicity (NCI protocol, SRB), IGROV1; conditions: Homo sapiens, IGROV-1, 48 h
human tumor cell lines = assay: In vitro cytotoxicity (NCI protocol, SRB), whole panel / mean graph midpoints; format: cell-based; conditions: for GI50: Homo sapiens; for Log10GI50 mean graph mid point (MG_MID) / Log10LC50 mean graph mid point (MG_MID) / Log10TGI mean graph mid point (MG_MID): mean over human tumor cell lines
From the text: The mean graph midpoint values of Log10 TGI and Log10 LC50 as well as Log10 GI50 for compounds 17a, 17c, 13a, 13c and 12a is listed in Table-2. […] The mean graph midpoints of Log10 TGI and Log10 LC50 have shown similar pattern to the log10 GI50 mean graph mid points.

NCI/ADR-RES = assay: In vitro cytotoxicity (NCI protocol, SRB), NCI/ADR-RES; conditions: Homo sapiens, 48 h
SF-539 = assay: In vitro cytotoxicity (NCI protocol, SRB), SF-539; conditions: Homo sapiens, 48 h
A498 = assay: In vitro cytotoxicity (NCI protocol, SRB), A498; conditions: Homo sapiens, A498, 48 h
MOLT-4 = assay: In vitro cytotoxicity (NCI protocol, SRB), MOLT-4; conditions: Homo sapiens, MOLT-4, 48 h
A549/ATCC = assay: In vitro cytotoxicity (NCI protocol, SRB), A549/ATCC; conditions: Homo sapiens, A549, 48 h
MCF7 = assay: In vitro cytotoxicity (NCI protocol, SRB), MCF7; conditions: Homo sapiens, MCF7, 48 h
HOP92 = assay: In vitro cytotoxicity (NCI protocol, SRB), HOP92; conditions: Homo sapiens, HOP-92, 48 h
SK-MEL-5 = assay: In vitro cytotoxicity (NCI protocol, SRB), SK-MEL-5; conditions: Homo sapiens, SK-MEL-5, 48 h
SR = assay: In vitro cytotoxicity (NCI protocol, SRB), SR; conditions: Homo sapiens, 48 h
SNB -75 = assay: In vitro cytotoxicity (NCI protocol, SRB), SNB -75; conditions: Homo sapiens, SNB-75, 48 h
NCI-H460 = assay: In vitro cytotoxicity (NCI protocol, SRB), NCI-H460; conditions: Homo sapiens, NCI-H460, 48 h
CCRF-CEM = assay: In vitro cytotoxicity (NCI protocol, SRB), CCRF-CEM; conditions: Homo sapiens, 48 h
NCI-H23 = assay: In vitro cytotoxicity (NCI protocol, SRB), NCI-H23; conditions: Homo sapiens, NCI-H23, 48 h
HCT-15 = assay: In vitro cytotoxicity (NCI protocol, SRB), HCT-15; conditions: Homo sapiens, HCT-15, 48 h
KM12 = assay: In vitro cytotoxicity (NCI protocol, SRB), KM12; conditions: Homo sapiens, KM12, 48 h
OVCAR-3 = assay: In vitro cytotoxicity (NCI protocol, SRB), OVCAR-3; conditions: Homo sapiens, OVCAR-3, 48 h
786-0 = assay: In vitro cytotoxicity (NCI protocol, SRB), 786-0; conditions: Homo sapiens, 786-0, 48 h
NCI-H226 = assay: In vitro cytotoxicity (NCI protocol, SRB), NCI-H226; conditions: Homo sapiens, NCI-H226, 48 h
SN12C = assay: In vitro cytotoxicity (NCI protocol, SRB), SN12C; conditions: Homo sapiens, 48 h
HL-60(TB) = assay: In vitro cytotoxicity (NCI protocol, SRB), HL-60(TB); format: cell-based; conditions: Homo sapiens, Leukemia HL-60(TB), 48 h exposure
K-562 = assay: In vitro cytotoxicity (NCI protocol, SRB), K-562; conditions: Homo sapiens, K562, 48 h
UO-31 = assay: In vitro cytotoxicity (NCI protocol, SRB), UO-31; conditions: Homo sapiens, UO-31, 48 h
SNB -19 = assay: In vitro cytotoxicity (NCI protocol, SRB), SNB -19; conditions: Homo sapiens, SNB-19, 48 h
T-47D = assay: In vitro cytotoxicity (NCI protocol, SRB), T-47D; conditions: Homo sapiens, T47D, 48 h
[1] = against all the cancer cell lines, read-out: GI50 values range
[2] = against fifty eight cell lines in nine cancer cell panels, read-out: GI50 values
[3] = against almost 50 above cancer cell lines
[4] = against almost all tumor cell lines, read-out: GI50 values

| SMILES | GI50 (TK-10) | GI50 (SF-295) | GI50 (IGROV1) | GI50 (human tumor cell lines; [2]) | Log10GI50 mean graph mid point (MG_MID) (human tumor cell lines) | Log10LC50 mean graph mid point (MG_MID) (human tumor cell lines) | Log10TGI mean graph mid point (MG_MID) (human tumor cell lines) | GI50 (NCI/ADR-RES) | GI50 (SF-539) | GI50 (A498) | GI50 (MOLT-4) | GI50 (A549/ATCC) | GI50 (MCF7) | GI50 (HOP92) | GI50 (SK-MEL-5) | GI50 (SR) | GI50 (SNB -75) | GI50 (NCI-H460) | GI50 (CCRF-CEM) | GI50 (NCI-H23) | other results |
| --- | --- | --- | --- | --- | --- | --- | --- | --- | --- | --- | --- | --- | --- | --- | --- | --- | --- | --- | --- | --- | --- |
| COc1ccc(S(=O)(=O)Nc2cc(/C=C\c3cc(OC)c(OC)c(OC)c3)ccc2OC)cc1 [12a, (Z)-4-methoxy-N-(2-methoxy-5-(3,4,5-trimethoxystyryl)phenyl)benzenesulfonamide] | 0.0768 µM | 0.0393 µM | 0.166 µM | 0.02 to 0.05 µM | −6.86 | −4.06 | −4.49 | 0.0711 µM | 0.126 µM | 0.0353 µM | 0.388 µM | 0.159 µM | 0.0426 µM | 0.0974 µM | 0.0488 µM | 0.0709 µM | 0.0708 µM | 0.178 µM | 0.176 µM | 0.48 µM | GI50 (MALME-3M): 0.0527 µM; GI50 (human tumor cell lines; [1]): 0.018 to 0.05 µM; cytotoxicity (human tumor cell lines; [3]): significant cytotoxicity; GI50 (HCT-15): 0.0623 µM; GI50 (KM12): 0.0738 µM; GI50 (OVCAR-3): 0.0528 µM; GI50 (786-0): 0.361 µM; GI50 (NCI-H226): 12.8 µM; GI50 (SN12C): 0.682 µM; GI50 (HL-60(TB)): 0.195 µM; GI50 (K-562): 0.053 µM; GI50 (UO-31): 0.131 µM; GI50 (SNB -19): 0.352 µM |
| COc1ccc(S(=O)(=O)Nc2cc(/C=C\c3cc(OC)c(OC)c(OC)c3)cc(OC)c2OC)cc1 [13a, (Z)—N-(2,3-dimethoxy-5-(3,4,5-trimethoxystyryl)phenyl)-4-methoxybenzenesulfonamide] | 0.065 µM | 0.0311 µM | 0.0577 µM | 0.02 to 0.05 µM | −7.2 | −4.07 | −4.55 | 0.0353 µM | 0.0253 µM | 0.0217 µM | 0.0495 µM | 0.0474 µM | 0.036 µM | 1.75 µM | 0.0359 µM | 0.0352 µM | 0.0265 µM | 0.0367 µM | 0.0329 µM | 0.0593 µM | GI50 (MALME-3M): 12.6 µM; GI50 (human tumor cell lines; [1]): 0.018 to 0.05 µM; GI50 (human tumor cell lines; [4]): < 0.05 µM; cytotoxicity (human tumor cell lines; [3]): significant cytotoxicity; GI50 (HCT-15): 0.0358 µM; GI50 (KM12): 0.0397 µM; GI50 (T-47D): 5.21 µM; GI50 (OVCAR-3): 0.0345 µM; GI50 (786-0): 0.0579 µM; GI50 (NCI-H226): 27.3 µM; GI50 (SN12C): 0.0698 µM; GI50 (HL-60(TB)): 0.0234 µM; GI50 (K-562): 0.0272 µM; GI50 (UO-31): 0.0636 µM; GI50 (SNB -19): 0.0601 µM |
| COc1cc(/C=C\c2cc(OC)c(OC)c(OC)c2)cc(NS(=O)(=O)c2ccc(Cl)cc2)c1OC [13c, (Z)-4-chloro-N-(2,3-dimethoxy-5-(3,4,5-trimethoxystyryl)phenyl)benzenesulfonamide] | 0.779 µM | 0.319 µM | 0.914 µM | 0.02 to 0.05 µM | −6.27 | −4.03 | −4.42 | 0.364 µM | 0.303 µM | 0.179 µM | 0.672 µM | 0.716 µM | 0.375 µM | 0.72 µM | 0.297 µM | 0.406 µM | 0.227 µM | 0.364 µM | 0.388 µM | 0.71 µM | cytotoxicity (human tumor cell lines; [3]): significant cytotoxicity; GI50 (HCT-15): 0.399 µM; GI50 (KM12): 0.572 µM; GI50 (T-47D): 0.381 µM; GI50 (OVCAR-3): 0.364 µM; GI50 (786-0): 0.666 µM; GI50 (NCI-H226): 13.5 µM; GI50 (SN12C): 0.75 µM; GI50 (HL-60(TB)): 0.249 µM; GI50 (K-562): 0.306 µM; GI50 (UO-31): 0.696 µM; GI50 (SNB -19): 0.745 µM |
| COc1ccc(S(=O)(=O)Nc2c(/C=C\c3cc(OC)c(OC)c(OC)c3)ccc(OC)c2O)cc1 [17a, (Z)—N-(2-hydroxy-3-methoxy-6-(3,4,5-trimethoxystyryl)phenyl)-4-methoxybenzenesulfonamide] | 0.0732 µM | 0.0339 µM | 0.054 µM | 0.02 to 0.05 µM | −7.17 | −4.05 | −4.55 | 0.155 µM | 0.0293 µM | 0.0188 µM | 0.0423 µM | 0.0459 µM | 0.038 µM | 1.6 µM | 0.0363 µM | 0.0319 µM | 0.0255 µM | 0.0368 µM | 0.0301 µM | 0.052 µM | GI50 (MALME-3M): 1.51 µM; GI50 (human tumor cell lines; [1]): 0.018 to 0.05 µM; GI50 (human tumor cell lines; [4]): < 0.05 µM; cytotoxicity (human tumor cell lines; [3]): significant cytotoxicity; GI50 (HCT-15): 0.0366 µM; GI50 (KM12): 0.0355 µM; GI50 (OVCAR-3): 0.0339 µM; GI50 (786-0): 0.375 µM; GI50 (NCI-H226): 4.13 µM; GI50 (SN12C): 0.0869 µM; GI50 (HL-60(TB)): 0.0235 µM; GI50 (K-562): 0.0286 µM; GI50 (UO-31): 0.0619 µM; GI50 (SNB -19): 0.0602 µM |
| COc1ccc(/C=C\c2cc(OC)c(OC)c(OC)c2)c(NS(=O)(=O)c2ccc(Cl)cc2)c1O [17c, (Z)-4-chloro-N-(2-hydroxy-3-methoxy-6-(3,4,5-trimethoxystyryl)phenyl)benzenesulfonamide] | 0.998 µM | 0.256 µM | 0.379 µM | 0.02 to 0.05 µM | −6.71 | −4.07 | −4.66 | 0.263 µM | 0.037 µM | 0.0229 µM | 0.0315 µM | 0.27 µM | 0.0384 µM | 2.36 µM | 0.051 µM | 0.0306 µM | 0.0331 µM | 0.316 µM | 0.159 µM | 0.288 µM | cytotoxicity (human tumor cell lines): significant cytotoxicity; GI50 (human tumor cell lines; [1]): 0.018 to 0.05 µM; GI50 (HCT-15): 0.053 µM; GI50 (KM12): 0.127 µM; GI50 (OVCAR-3): 0.0602 µM; GI50 (786-0): 0.572 µM; GI50 (NCI-H226): 24.9 µM; GI50 (SN12C): 0.708 µM; GI50 (HL-60(TB)): 0.0331 µM; GI50 (K-562): 0.0323 µM; GI50 (UO-31): 0.0739 µM; GI50 (SNB -19): 0.807 µM |
